# Laboratory results from ChEMBL document CHEMBL1201862, “PubChem BioAssay data set” (2004).
# Calls of active or inactive are those of the source.
# Columns and labels:
# Type in all cases: functional
# [1] = cytotoxicity toward NIH3T3 fibroblasts, dose response, counter-screen, cell-based, ATP luminescence, mouse fibroblasts (AID 2010);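 further: cells exposed to compound for about 90 hours before reading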
# [2] = biological target: Small ubiquitin-related modifier 1 (Homo sapiens, UniProt P63165); test: inhibitors of SUMO1 peptide binding, dose response, biochemical, fluorescence polarization, uHTS hits (AID 624382); details: read-out: IC50_Mean
# [3] = biological target: T1, RNA-editing ligase 1, mitochondrial (Trypanosoma brucei brucei, UniProt P86926); test: TbREL1 ligase inhibitors, dose response, biochemical, fluorescence, Trypanosoma brucei (AID 1117295)
# T1 sequence (P86926 whole entry): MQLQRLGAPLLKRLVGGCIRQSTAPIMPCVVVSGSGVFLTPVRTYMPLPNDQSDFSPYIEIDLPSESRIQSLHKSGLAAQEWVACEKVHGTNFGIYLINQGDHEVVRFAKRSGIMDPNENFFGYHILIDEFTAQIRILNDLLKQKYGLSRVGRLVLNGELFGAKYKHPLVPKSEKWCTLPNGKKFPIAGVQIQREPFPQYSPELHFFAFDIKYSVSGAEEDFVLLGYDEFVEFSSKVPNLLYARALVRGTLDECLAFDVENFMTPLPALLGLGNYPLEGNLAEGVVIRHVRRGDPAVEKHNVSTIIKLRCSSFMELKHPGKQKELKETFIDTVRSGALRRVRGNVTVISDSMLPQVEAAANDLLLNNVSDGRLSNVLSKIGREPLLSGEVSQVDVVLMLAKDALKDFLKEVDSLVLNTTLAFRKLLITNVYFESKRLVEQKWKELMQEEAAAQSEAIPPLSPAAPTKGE
# Hexokinase HKDC1 = biological target: T2, Hexokinase HKDC1 (Homo sapiens, UniProt Q2TB90); test: HKDC1 hexokinase inhibitors, dose response, biochemical, W721R variant (AID 504729)
# T2 sequence (Q2TB90 whole entry): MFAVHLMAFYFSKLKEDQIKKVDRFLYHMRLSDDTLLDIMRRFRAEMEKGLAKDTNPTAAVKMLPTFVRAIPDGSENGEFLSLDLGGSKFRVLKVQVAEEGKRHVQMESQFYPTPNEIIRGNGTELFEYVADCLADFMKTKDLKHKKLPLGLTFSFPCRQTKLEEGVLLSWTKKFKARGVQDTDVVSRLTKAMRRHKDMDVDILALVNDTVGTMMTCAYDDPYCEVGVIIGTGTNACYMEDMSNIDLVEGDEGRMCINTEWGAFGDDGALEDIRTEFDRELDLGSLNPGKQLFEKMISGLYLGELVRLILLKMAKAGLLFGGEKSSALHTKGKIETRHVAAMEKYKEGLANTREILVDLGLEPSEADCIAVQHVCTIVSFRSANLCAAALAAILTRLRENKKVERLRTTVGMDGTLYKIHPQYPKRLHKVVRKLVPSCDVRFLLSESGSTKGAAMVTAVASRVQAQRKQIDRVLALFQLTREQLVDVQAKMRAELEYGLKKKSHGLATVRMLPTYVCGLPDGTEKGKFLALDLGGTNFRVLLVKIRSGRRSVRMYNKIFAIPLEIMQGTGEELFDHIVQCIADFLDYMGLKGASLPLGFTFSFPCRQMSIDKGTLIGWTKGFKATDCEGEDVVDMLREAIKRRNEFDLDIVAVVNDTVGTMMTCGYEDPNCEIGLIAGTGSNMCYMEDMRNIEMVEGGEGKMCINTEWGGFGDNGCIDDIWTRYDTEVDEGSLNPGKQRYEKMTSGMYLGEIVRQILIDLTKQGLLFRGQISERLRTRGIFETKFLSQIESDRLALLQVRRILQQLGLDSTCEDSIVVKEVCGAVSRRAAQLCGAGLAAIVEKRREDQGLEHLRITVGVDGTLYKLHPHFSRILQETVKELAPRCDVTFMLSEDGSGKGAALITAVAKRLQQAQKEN
# Protein RecA = biological target: T3, Protein RecA (Mycobacterium tuberculosis, UniProt P9WHJ3); test: Fluorescence Cell-Free Homogeneous Dose Retest to Identify Inhibitors of RecA-Intein Splicing Activity. [Related pubchem assays (depositor defined):AID2097, AID2223, AID489010, AID492950]
# T3 sequence (P9WHJ3 whole entry): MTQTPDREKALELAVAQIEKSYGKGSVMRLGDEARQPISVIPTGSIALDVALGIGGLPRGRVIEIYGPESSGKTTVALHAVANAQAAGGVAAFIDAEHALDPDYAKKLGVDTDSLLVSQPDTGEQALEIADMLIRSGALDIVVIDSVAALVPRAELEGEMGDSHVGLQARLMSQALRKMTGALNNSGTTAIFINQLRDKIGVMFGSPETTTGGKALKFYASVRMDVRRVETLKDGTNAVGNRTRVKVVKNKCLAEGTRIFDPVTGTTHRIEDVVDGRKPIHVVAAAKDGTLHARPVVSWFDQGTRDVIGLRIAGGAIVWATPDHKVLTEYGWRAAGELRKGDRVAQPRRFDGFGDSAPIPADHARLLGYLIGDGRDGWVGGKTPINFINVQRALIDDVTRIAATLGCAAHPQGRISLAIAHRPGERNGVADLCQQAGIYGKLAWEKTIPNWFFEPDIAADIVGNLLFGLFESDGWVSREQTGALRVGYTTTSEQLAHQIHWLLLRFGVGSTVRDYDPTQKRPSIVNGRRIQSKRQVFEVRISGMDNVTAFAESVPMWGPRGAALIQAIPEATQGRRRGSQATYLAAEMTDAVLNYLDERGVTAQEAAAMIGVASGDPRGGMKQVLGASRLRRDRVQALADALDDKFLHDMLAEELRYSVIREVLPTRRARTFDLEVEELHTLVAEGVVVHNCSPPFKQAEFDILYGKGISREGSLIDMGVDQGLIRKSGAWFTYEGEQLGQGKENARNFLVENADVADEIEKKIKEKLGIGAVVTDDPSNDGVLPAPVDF
# Small ubiquitin-related modifier 1, sequence (P63165 whole entry): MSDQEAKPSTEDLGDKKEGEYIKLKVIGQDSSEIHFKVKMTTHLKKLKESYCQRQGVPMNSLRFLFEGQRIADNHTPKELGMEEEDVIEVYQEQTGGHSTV
smiles,measurement,setting,value
CCN1/C(=C/c2ccc3cc(C)ccc3[n+]2CC)Sc2cc(C)c(C)cc21,EC50,[1],5.67 µM (active)
Nc1ccc2nc3c(O)nc(S)nc3nc2c1,IC50,[2],5.69 µM (active)
same,IC50,[3],2.76 µM (active)
Cc1oc2c(c1C(=O)c1ccccc1)C(=O)C(=O)c1ccccc1-2,IC50,Hexokinase HKDC1,14.5 µM (active)
same,IC50,[3],10.3 µM (inactive)
O=C1CCCC2=C1C1(O)C(=O)c3ccccc3C1(O)O2 (stereo not given),EC50,Protein RecA,11.5 µM (active)
CSc1ccc(C=NNc2ccc(S(=O)(=O)Nc3ccccc3C(=O)O)cc2[N+](=O)[O-])cc1,IC50,[2],3.23 µM (active)
O=C1C(Cl)=C(NCCN2CCCCC2)C(=O)c2ccccc21,EC50,[1],0.798 µM (active)
same,EC50,Protein RecA,7.31 µM (active)
O=C(O)COc1ccc(/C=N/NC(=O)c2ccc(-c3csc(Nc4ccc(Cl)cc4)n3)cc2)cc1,IC50,Hexokinase HKDC1,33 µM (inactive)
